Columns and labels:
[1] = tested on: SMN2 minigene mRNA (SMN2-A minigene construct); test: SMN2 minigene mRNA splicing RT-qPCR assay in cultured cells; assay type: cell-based, human; conditions: Homo sapiens, HEK293-H; HEK293H cells stably transfected with SMN2-A minigene, 24 hours, 7-point concentration data; concentration giving 1.5-fold SMN2 full length mRNA relative to vehicle-treated cells; read-out: EC1.5x for production of full length SMN2 mRNA
Summary of the method: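 Full-length SMN2 minigene mRNA, measured by exon 7/luciferase-specific RT-qPCR that excludes endogenous SMN1/SMN2, was normalized to GAPDH and expressed relative to vehicle-treated cells via modified ΔΔCt. Stably transfected HEK293H cells received compound (7-point, 3.16-fold series, duplicates) for 24 h at 37 °C.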

Smn protein = Smn protein assay (HTRF) in cultured cells (SMA patient fibroblasts GM03813); assay type: cell-based, human; conditions: 48 hours; for maximum fold (Fold) increase of Smn protein: SMA patient fibroblast cells, 7-point concentration curve, relative to vehicle control; for EC1.5x for Smn protein expression: SMA patient fibroblast cells (GM03813), HTRF, 7-point concentration data, concentration producing 1.5 times Smn protein vs DMSO vehicle control
Summary of the method: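 SMA patient fibroblasts (GM03813) were treated 48 h at 37° C with a 7-point, 3.16-fold compound series in triplicate, then lysed in RIPA. Smn was read by HTRF (anti-SMN d2/kryptate, 665/620 nm ratio). ΔF versus blank was divided by vehicle ΔF to give fold Smn increase.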

| melting point [°C] | SMILES | EC (1.5-fold) [1] [µM] | maximum fold (Fold) increase of Smn protein (Smn protein) | EC1.5x for Smn protein expression (Smn protein) |
| --- | --- | --- | --- | --- |
| 251 to 254 | CCCN1CCN(c2ccc3cc(-c4nc5c(Cl)cccc5s4)c(=O)oc3n2)CC1 [Cpd 13, 3-(4-chloro-1,3-benzothiazol-2-yl)-7-(4-propylpiperazin-1-yl)-2H-pyrano[2,3-b]pyridin-2-one] | 1 to 3 | *** (a fold increase between >1.35 and ≦1.5 is indicated by three stars (***)) | – |
| 238 to 242 | Cc1csc(-c2cc3ccc(N4CCNCC4)nc3oc2=O)n1.Cl [Cpd 15, 3-(4-methyl-1,3-thiazol-2-yl)-7-(piperazin-1-yl)-2H-pyrano[2,3-b]pyridin-2-one hydrochloride] | 3 to 30 | ** (a fold increase between >1.2 and ≦1.35 is indicated by two stars (**)) | – |
| 274 to 280 | Cl.O=c1oc2nc(N3CCNCC3)ccc2cc1-c1nc(C(F)(F)F)cs1 [Cpd 16, 7-(piperazin-1-yl)-3-[4-(trifluoromethyl)-1,3-thiazol-2-yl]-2H-pyrano[2,3-b]pyridin-2-one hydrochloride] | 1 to 3 | * (A maximum fold increase ≦1.2 is indicated by one star (*)) | – |
| 254 to 257 | CCN1CCN(c2ccc3cc(-c4nc5ccccc5s4)c(=O)oc3n2)CC1 [Cpd 17, 3-(1,3-benzothiazol-2-yl)-7-(4-ethylpiperazin-1-yl)-2H-pyrano[2,3-b]pyridin-2-one] | 0.3 to 1 | *** (a fold increase between >1.35 and ≦1.5 is indicated by three stars (***)) | – |
| 247 to 250 | CCCN1CCN(c2ccc3cc(-c4nc5ccccc5s4)c(=O)oc3n2)CC1 [Cpd 18, 3-(1,3-benzothiazol-2-yl)-7-(4-propylpiperazin-1-yl)-2H-pyrano[2,3-b]pyridin-2-one] | 1 to 3 | * (A maximum fold increase ≦1.2 is indicated by one star (*)) | – |
| 241 to 245 | CC(C)N1CCN(c2ccc3cc(-c4nc5ccccc5s4)c(=O)oc3n2)CC1 [Cpd 19, 3-(1,3-benzothiazol-2-yl)-7-[4-(propan-2-yl)piperazin-1-yl]-2H-pyrano[2,3-b]pyridin-2-one] | 0.3 to 1 | ** (a fold increase between >1.2 and ≦1.35 is indicated by two stars (**)) | – |
| 228 to 232 | CCN1CCN(c2ccc3cc(-c4nc(C)cs4)c(=O)oc3n2)CC1 [Cpd 20, 7-(4-ethylpiperazin-1-yl)-3-(4-methyl-1,3-thiazol-2-yl)-2H-pyrano[2,3-b]pyridin-2-one] | 3 to 30 | * (A maximum fold increase ≦1.2 is indicated by one star (*)) | – |
| 210 to 214 | CCCN1CCN(c2ccc3cc(-c4nc(C)cs4)c(=O)oc3n2)CC1 [Cpd 21, 3-(4-methyl-1,3-thiazol-2-yl)-7-(4-propylpiperazin-1-yl)-2H-pyrano[2,3-b]pyridin-2-one] | 3 to 30 | * (A maximum fold increase ≦1.2 is indicated by one star (*)) | – |
| 216 to 220 | O=c1oc2nc(N3CCN(CC(O)CO)CC3)ccc2cc1-c1nc2c(Cl)cccc2s1 (stereo not drawn) [Cpd 22, 3-(4-chloro-1,3-benzothiazol-2-yl)-7-[4-(2,3-dihydroxypropyl)piperazin-1-yl]-2H-pyrano[2,3-b]pyridin-2-one] | 0.3 to 1 | **** (a fold increase between >1.5 and ≦1.65 is indicated by four stars (****)) | *** (an EC1.5× between >0.3 μM and ≦1 μM is indicated by three stars (***)) |
| 230 to 234 | CC(C)N1CCN(c2ccc3cc(-c4nc5c(Cl)cccc5s4)c(=O)oc3n2)CC1 [Cpd 23, 3-(4-chloro-1,3-benzothiazol-2-yl)-7-[4-(propan-2-yl)piperazin-1-yl]-2H-pyrano[2,3-b]pyridin-2-one] | 0.3 to 1 | ** (a fold increase between >1.2 and ≦1.35 is indicated by two stars (**)) | – |
| 220 to 224 | O=c1oc2nc(N3CCN(CCO)CC3)ccc2cc1-c1nc2ccccc2s1 [Cpd 25, 3-(1,3-benzothiazol-2-yl)-7-[4-(2-hydroxyethyl)piperazin-1-yl]-2H-pyrano[2,3-b]pyridin-2-one] | 0.3 to 1 | *** (a fold increase between >1.35 and ≦1.5 is indicated by three stars (***)) | – |
| 236 to 239 | O=c1oc2nc(N3CCN(CC(O)CO)CC3)ccc2cc1-c1nc2ccccc2s1 (stereo not drawn) [Cpd 26, 3-(1,3-benzothiazol-2-yl)-7-[4-(2,3-dihydroxypropyl)piperazin-1-yl]-2H-pyran [2,3-b]pyridin-2-one] | 1 to 3 | ** (a fold increase between >1.2 and ≦1.35 is indicated by two stars (**)) | – |
| 264 to 268 | Cc1ccn2cc(-c3cc4ccc(N5CCN(C)CC5)nc4oc3=O)nc2c1 [Cpd 39, 3-(7-methylimidazo[1,2-a]pyridin-2-yl)-7-(4-methylpiperazin-1-yl)-2H-pyrano[2,3-b]pyridin-2-one] | ≤ 0.1 | **** (a fold increase between >1.5 and ≦1.65 is indicated by four stars (****)) | **** (an EC1.5×≦0.3 μM is indicated by four stars (****)) |

More lines, now with the values behind:

| SMILES | melting point [°C] | EC (1.5-fold) [1] [µM] | maximum fold (Fold) increase of Smn protein (Smn protein) | EC1.5x for Smn protein expression (Smn protein) |
| --- | --- | --- | --- | --- |
| Cc1ccc2nc(-c3cc4ccc(N5CCNCC5)nc4oc3=O)cn2c1.Cl [Cpd 24, 3-(6-methylimidazo[1,2-a]pyridin-2-yl)-7-(piperazin-1-yl)-2H-pyrano[2,3-b]pyridin-2-one hydrochloride] | 218 to 222 | 0.3 to 1 | ** (a fold increase between >1.2 and ≦1.35 is indicated by two stars (**)) | – |
| Cc1ccn2cc(-c3cc4ccc(N5CCNCC5)nc4oc3=O)nc2c1.Cl [Cpd 29, 3-(7-methylimidazo[1,2-a]pyridin-2-yl)-7-(piperazin-1-yl)-2H-pyrano[2,3-b]pyridin-2-one hydrochloride] | 240 to 244 | ≤ 0.1 | *** (a fold increase between >1.35 and ≦1.5 is indicated by three stars (***)) | – |
| Cl.O=c1oc2nc(N3CCCNCC3)ccc2cc1-c1cn2cccnc2n1 [Cpd 30, 7-(1,4-diazepan-1-yl)-3-(imidazo[1,2-a]pyrimidin-2-yl)-2H-pyrano[2,3-b]pyridin-2-one hydrochloride] | 250 to 252 | 0.1 to 0.3 | *** (a fold increase between >1.35 and ≦1.5 is indicated by three stars (***)) | ** (an EC1.5× between >1 and ≦3 μM is indicated by two stars (**)) |
| Cl.O=c1oc2nc(N3CCCNCC3)ccc2cc1-c1nc2c(Cl)cccc2s1 [Cpd 31, 3-(4-chloro-1,3-benzothiazol-2-yl)-7-(1,4-diazepan-1-yl)-2H-pyrano[2,3-b]pyridin-2-one hydrochloride] | 271 to 273 | 0.1 to 0.3 | ** (a fold increase between >1.2 and ≦1.35 is indicated by two stars (**)) | – |
| Cl.O=c1oc2nc(N3CCCNCC3)ccc2cc1-c1cn2ccsc2n1 [Cpd 32, 7-(1,4-diazepan-1-yl)-3-(imidazo[2,1-b][1,3]thiazol-6-yl)-2H-pyrano[2,3-b]pyridin-2-one hydrochloride] | 267 to 269 | ≤ 0.1 | *** (a fold increase between >1.35 and ≦1.5 is indicated by three stars (***)) | – |
| Cc1ccc2nc(-c3cc4cnc(N5CCN(C)CC5)cc4oc3=O)cn2c1 [Cpd 34, 3-(6-methylimidazo[1,2-a]pyridin-2-yl)-7-(4-methylpiperazin-1-yl)-2H-pyrano[3,2-c]pyridin-2-one] | 264 to 268 | 1 to 3 | *** (a fold increase between >1.35 and ≦1.5 is indicated by three stars (***)) | – |
| CN1CCCN(c2ccc3cc(-c4cn5cccnc5n4)c(=O)oc3n2)CC1 [Cpd 36, 3-(imidazo[1,2-a]pyrimidin-2-yl)-7-(4-methyl-1,4-diazepan-1-yl)-2H-pyrano[2,3-b]pyridin-2-one] | 232 to 234 | 0.3 to 1 | **** (a fold increase between >1.5 and ≦1.65 is indicated by four stars (****)) | ** (an EC1.5× between >1 and ≦3 μM is indicated by two stars (**)) |
| CN1CCCN(c2ccc3cc(-c4nc5c(Cl)cccc5s4)c(=O)oc3n2)CC1 [Cpd 37, 3-(4-chloro-1,3-benzothiazol-2-yl)-7-(4-methyl-1,4-diazepan-1-yl)-2H-pyrano[2,3-b]pyridin-2-one] | 263 to 265 | ≤ 0.1 | *** (a fold increase between >1.35 and ≦1.5 is indicated by three stars (***)) | ** (an EC1.5× between >1 and ≦3 μM is indicated by two stars (**)) |
| CN1CCN(c2ccc3cc(-c4cn5ccccc5n4)c(=O)oc3n2)CC1 [Cpd 38, 3-(imidazo[1,2-a]pyridin-2-yl)-7-(4-methylpiperazin-1-yl)-2H-pyrano[2,3-b]pyridin-2-one] | 243 to 246 | 0.1 to 0.3 | ***** (a fold increase >1.65 is indicated by five stars (*****)) | *** (an EC1.5× between >0.3 μM and ≦1 μM is indicated by three stars (***)) |

— patent US9371336B2, “Compounds for treating spinal muscular atrophy” (PTC Therapeutics Inc., priority 2012, dated 2016)
